Each structure is given as a SMILES string. Like-named read-outs stand apart in the source and are kept apart here.

This is an account of results in US8791131B2, “Imidazo[1,5]naphthyridine compounds, their pharmaceutical use and compositions” (Pfizer Inc., priority 2008, dated 2014).

One assay concerns the target PI3-Kα (Mus musculus (Mouse), UniProt P42337). As to the kind of experiment: PI3-Kα biochemical assay (in vitro kinase assay, fluorescence polarization).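 For all read-outs here: Insect-cell-expressed mouse p110/p85 complex converting PI(4,5)P2, product PI(3,4,5)P3 detected by displacing TAMRA-tagged PI(3,4,5)P3 from Grip1 PH domain, lower polarization means more product, room temperature.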 To be noted: for PI3Ka Ki: Ki calculated from IC50, [ATP]=30 uM, Km=25 uM.
The subject of assay [1] is PI3-K (phosphorylation of AKT at serine 473) in BT20 cells. In words: PI3-Kα cellular assay (phospho-AKT Ser473 ELISA in BT20 cells).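 Note: lysates read by ELISA with TMB colour at 450 nm, cells given 0.5% DMSO vehicle serve as positive control and cell-free wells as negative control, duplicate wells per concentration.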 The settings on record: Homo sapiens, BT-20, 1 h. (ELISA stands for enzyme-linked immunosorbent assay.)
The target in another assay is mTOR (Homo sapiens (Human), UniProt P42345).
[2] abbreviates: read-out: S473 pAKT 0.5% FBS IC50 (μM).
Where [3] appears, read: read-out: S473 pAKT 10% FBS IC50 (μM).

mTOR, sequence (P42345 2156-2469): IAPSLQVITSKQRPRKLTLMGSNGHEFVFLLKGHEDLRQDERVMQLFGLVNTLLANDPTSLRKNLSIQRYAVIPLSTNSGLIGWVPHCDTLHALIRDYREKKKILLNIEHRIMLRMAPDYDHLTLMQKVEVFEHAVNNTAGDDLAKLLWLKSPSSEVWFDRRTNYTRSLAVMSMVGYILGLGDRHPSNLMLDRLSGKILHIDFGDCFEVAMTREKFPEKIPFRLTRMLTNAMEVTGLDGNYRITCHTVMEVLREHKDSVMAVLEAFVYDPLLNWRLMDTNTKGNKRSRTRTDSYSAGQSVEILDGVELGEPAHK
PI3-Kα, sequence (P42337 whole entry, the tested form may be a part): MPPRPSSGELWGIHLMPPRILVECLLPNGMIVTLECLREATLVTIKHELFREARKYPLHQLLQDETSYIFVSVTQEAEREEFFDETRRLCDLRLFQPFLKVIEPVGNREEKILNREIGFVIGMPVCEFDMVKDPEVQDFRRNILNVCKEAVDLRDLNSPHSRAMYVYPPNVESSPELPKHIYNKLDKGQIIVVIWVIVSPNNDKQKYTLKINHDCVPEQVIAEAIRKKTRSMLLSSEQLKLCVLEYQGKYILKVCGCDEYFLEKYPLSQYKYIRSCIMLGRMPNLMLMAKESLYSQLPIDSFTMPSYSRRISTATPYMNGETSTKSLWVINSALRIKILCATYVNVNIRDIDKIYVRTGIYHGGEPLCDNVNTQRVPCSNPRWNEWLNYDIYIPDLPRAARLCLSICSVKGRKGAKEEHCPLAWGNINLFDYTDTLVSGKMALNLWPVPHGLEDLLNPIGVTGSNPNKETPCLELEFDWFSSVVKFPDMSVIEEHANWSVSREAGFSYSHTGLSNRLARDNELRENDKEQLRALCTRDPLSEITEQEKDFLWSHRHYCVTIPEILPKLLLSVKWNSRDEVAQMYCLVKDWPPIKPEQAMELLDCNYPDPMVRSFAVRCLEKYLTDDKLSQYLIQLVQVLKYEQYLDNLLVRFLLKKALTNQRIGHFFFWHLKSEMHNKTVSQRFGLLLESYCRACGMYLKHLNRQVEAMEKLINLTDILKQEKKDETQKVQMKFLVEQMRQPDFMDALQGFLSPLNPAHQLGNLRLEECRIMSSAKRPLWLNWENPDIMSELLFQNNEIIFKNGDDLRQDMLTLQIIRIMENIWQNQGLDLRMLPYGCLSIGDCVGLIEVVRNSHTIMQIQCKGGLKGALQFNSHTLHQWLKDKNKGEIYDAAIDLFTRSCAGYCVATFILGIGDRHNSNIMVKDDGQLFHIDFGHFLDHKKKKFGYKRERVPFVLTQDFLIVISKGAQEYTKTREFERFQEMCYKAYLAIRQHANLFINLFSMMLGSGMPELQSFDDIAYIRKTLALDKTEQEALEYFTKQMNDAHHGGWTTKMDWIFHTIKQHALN
PI3-Kα, sequence (P26450 whole entry partner, the tested form may be a part): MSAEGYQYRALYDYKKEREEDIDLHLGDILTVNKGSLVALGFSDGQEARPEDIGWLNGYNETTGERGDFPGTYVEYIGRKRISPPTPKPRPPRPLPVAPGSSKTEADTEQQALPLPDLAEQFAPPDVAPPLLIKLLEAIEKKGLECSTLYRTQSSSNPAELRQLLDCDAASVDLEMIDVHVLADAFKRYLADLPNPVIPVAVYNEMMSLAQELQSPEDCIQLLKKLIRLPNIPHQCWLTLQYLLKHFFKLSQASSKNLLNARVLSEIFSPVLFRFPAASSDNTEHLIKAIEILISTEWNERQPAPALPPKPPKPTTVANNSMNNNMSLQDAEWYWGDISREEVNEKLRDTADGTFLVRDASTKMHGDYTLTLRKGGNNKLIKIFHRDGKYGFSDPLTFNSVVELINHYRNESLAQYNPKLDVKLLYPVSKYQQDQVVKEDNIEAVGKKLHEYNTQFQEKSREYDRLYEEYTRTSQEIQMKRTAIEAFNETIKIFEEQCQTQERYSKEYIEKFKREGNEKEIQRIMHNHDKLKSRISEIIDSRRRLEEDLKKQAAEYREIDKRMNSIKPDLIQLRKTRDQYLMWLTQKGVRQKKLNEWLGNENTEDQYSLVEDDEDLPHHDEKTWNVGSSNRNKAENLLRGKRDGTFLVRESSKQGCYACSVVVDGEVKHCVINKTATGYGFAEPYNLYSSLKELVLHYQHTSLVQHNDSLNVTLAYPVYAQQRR

What is called IC50 is the concentration needed to halve the response being measured. With `COc1ncc(-c2ccc3ncc4c(c3n2)n(-c2ccc(C(C)(C)C#N)cc2)c(=O)n4C)cn1` [Compound 112, 2-(4-(8-(2-methoxypyrimidin-5-yl)-3-methyl-2-oxo-2,3-dihydroimidazo[4,5-c][1,5]naphthyridin-1-yl)phenyl)-2-methylpropanenitrile], the “PI3Ka Ki” value on PI3-Kα was 6.09 nM. Besides, in assay [1] (setting [2]), the IC50 is 0.0272 µM.
Take `CCNC(=O)N1CCC(n2c(=O)n(C)c3cnc4ccc(-c5cnc6ccccc6c5)nc4c32)CC1` [Compound 124, N-ethyl-4-(3-methyl-2-oxo-8-quinolin-3-yl-2,3-dihydro-1H-imidazo[4,5-c][1,5]naphthyridin-1-yl)piperidine-1-carboxamide]: in assay [1] (setting [2]), the IC50 was 0.017 µM.
For the compound `Cn1cc(-c2ccc3ncc4c(c3n2)n(C2CCN(CC(F)(F)F)CC2)c(=O)n4C)cn1` [Compound 151, 3-methyl-8-(1-methyl-1H-pyrazol-4-yl)-1-[1-(2,2,2-trifluoroethyl)piperidin-4-yl]-1,3-dihydro-2H-imidazo[4,5-c][1,5]naphthyridin-2-one], in assay [1] (setting [3]), the IC50 is 0.195 µM.
Take `COc1ncc(-c2ccc3ncc4c(c3n2)n([C@H]2CC[C@H](C(N)=O)CC2)c(=O)n4C)cn1` [Compound 157, trans-4-[8-(2-methoxypyrimidin-5-yl)-3-methyl-2-oxo-2,3-dihydro-1H-imidazo[4,5-c][1,5]naphthyridin-1-yl]cyclohexanecarboxamide]: in assay [1] (setting [3]), the 50% inhibitory concentration (IC50) was found to be 0.0456 µM.
Still for that read-out and setting: the same measure for `Cn1cc(-c2ccc3ncc4c(c3n2)n([C@H]2CC[C@H](C(N)=O)CC2)c(=O)n4C)cn1` [Compound 158, trans-4-[3-methyl-8-(1-methyl-1H-pyrazol-4-yl)-2-oxo-2,3-dihydro-1H-imidazo[4,5-c][1,5]naphthyridin-1-yl]cyclohexanecarboxamide]: 0.224 µM; for `COCC(=O)N1CCC(n2c(=O)n(C)c3cnc4ccc(-c5cnc(OC)nc5)nc4c32)CC1` [Compound 161, 1-[1-(methoxyacetyl)piperidin-4-yl]-8-(2-methoxypyrimidin-5-yl)-3-methyl-1,3-dihydro-2H-imidazo[4,5-c][1,5]naphthyridin-2-one]: 0.0123 µM.
The term Ki denotes a dissociation constant, usually derived from enzyme kinetics or from competition with a known ligand. With `COc1ncc(-c2ccc3ncc4c(c3n2)n([C@H]2CC[C@H](O)CC2)c(=O)n4C)cn1` [Compound 169, 1-(trans-4-hydroxycyclohexyl)-8-(2-methoxypyrimidin-5-yl)-3-methyl-1,3-dihydro-2H-imidazo[4,5-c][1,5]naphthyridin-2-one], on mTOR, affinity was put at a Ki of 6.39 nM. In assay [1] (setting [3]), the IC50 was 1 µM.
With `Cn1c(=O)n([C@H]2CC[C@H](O)CC2)c2c3nc(-c4cc[nH]n4)ccc3ncc21` [Compound 174, 1-(trans-4-hydroxycyclohexyl)-3-methyl-8-(1H-pyrazol-3-yl)-1,3-dihydro-2H-imidazo[4,5-c][1,5]naphthyridin-2-one], the “PI3Ka Ki” value at PI3-Kα was 23.3 nM. Also, the IC50 in assay [1] (setting [3]) turned out to be 0.264 µM.
The corresponding values for `COc1ncc(-c2ccc3ncc4c(c3n2)n(C2CCN(C(=O)CN(C)C)CC2)c(=O)n4C)cn1` [Compound 183, 1-[1-(N,N-dimethylglycyl)piperidin-4-yl]-8-(2-methoxypyrimidin-5-yl)-3-methyl-1,3-dihydro-2H-imidazo[4,5-c][1,5]naphthyridin-2-one] are 28.7 nM and 0.175 µM.
Taken in the same sequence, the figures for `Cn1c(=O)n(C2CCOCC2)c2c3nc(-c4ccn[nH]4)ccc3ncc21` [Compound 202, 3-methyl-8-(1H-pyrazol-5-yl)-1-(tetrahydro-2H-pyran-4-yl)-1,3-dihydro-2H-imidazo[4,5-c][1,5]naphthyridin-2-one] were 28.3 nM and 0.309 µM.
With `CN(C)c1ccc(-c2ccc3ncc4c(c3n2)n(C2CCN(C(=O)C(C)(C)O)CC2)c(=O)n4C)cn1` [Compound 209, 8-[6-(dimethylamino)pyridin-3-yl]-1-[1-(2-hydroxy-2-methylpropanoyl)piperidin-4-yl]-3-methyl-1,3-dihydro-2H-imidazo[4,5-c][1,5]naphthyridin-2-one], at PI3-Kα, the “PI3Ka Ki” value was 0.264 nM. Moreover, the IC50 in assay [1] (setting [3]) worked out at 0.00669 µM.
On to `Cn1c(=O)n(C2CCOCC2)c2c3nc(-c4cnc(N)nc4)ccc3ncc21` [Compound 210, 8-(2-aminopyrimidin-5-yl)-3-methyl-1-(tetrahydro-2H-pyran-4-yl)-1,3-dihydro-2H-imidazo[4,5-c][1,5]naphthyridin-2-one], for which the IC50 in assay [1] (setting [3]) came to 0.00694 µM.
As to `Cc1ccc(-c2ccc3ncc4c(c3n2)n(C2CCOCC2)c(=O)n4CCO)cn1` [Compound 218, 3-(2-hydroxyethyl)-8-(6-methylpyridin-3-yl)-1-(tetrahydro-2H-pyran-4-yl)-1,3-dihydro-2H-imidazo[4,5-c][1,5]naphthyridin-2-one], the “PI3Ka Ki” value at PI3-Kα was 45.4 nM. In addition, the IC50 in assay [1] (setting [3]) was found to be 0.428 µM.
For `COc1ccc(-c2ccc3ncc4c(c3n2)n(C2CCOCC2)c(=O)n4CCO)cn1` [Compound 219, 3-(2-hydroxyethyl)-8-(6-methoxypyridin-3-yl)-1-(tetrahydro-2H-pyran-4-yl)-1,3-dihydro-2H-imidazo[4,5-c][1,5]naphthyridin-2-one], the Ki at mTOR was 47.2 nM. The “PI3Ka Ki” value on PI3-Kα is 75.7 nM.
The corresponding values for `CN(C)c1ccc(-c2ccc3ncc4c(c3n2)n(C2CCOCC2)c(=O)n4CCO)cn1` [Compound 222, 8-[6-(dimethylamino)pyridin-3-yl]-3-(2-hydroxyethyl)-1-(tetrahydro-2H-pyran-4-yl)-1,3-dihydro-2H-imidazo[4,5-c][1,5]naphthyridin-2-one] are 50.1 nM and 319 nM.
Compound `C[C@H](CO)n1c(=O)n(C)c2cnc3ccc(-c4cnn(C)c4)nc3c21` [Compound 232, 1-[(1R)-2-hydroxy-1-methylethyl]-3-methyl-8-(1-methyl-1H-pyrazol-4-yl)-1,3-dihydro-2H-imidazo[4,5-c][1,5]naphthyridin-2-one] showed a Ki on mTOR of 521 nM. Also, on PI3-Kα, the “PI3Ka Ki” value is 143 nM.
For `C[C@H](CO)n1c(=O)n(C)c2cnc3ccc(-c4cnc5ccccc5c4)nc3c21` [Compound 234, 1-[(1R)-2-hydroxy-1-methylethyl]-3-methyl-8-quinolin-3-yl-1,3-dihydro-2H-imidazo[4,5-c][1,5]naphthyridin-2-one], the “PI3Ka Ki” value on PI3-Kα is 57.3 nM.
For the compound `Cn1c(=O)n([C@H]2CC[C@H](O)CC2)c2c3nc(-c4cccc5[nH]ccc45)ccc3ncc21` [Compound 236, 1-(trans-4-hydroxycyclohexyl)-8-(1H-indo1-4-yl)-3-methyl-1,3-dihydro-2H-imidazo[4,5-c][1,5]naphthyridin-2-one], the IC50 in assay [1] (setting [3]) was 0.00961 µM.
For the compound `CNC(=O)Nc1ccc(-c2ccc3ncc4c(c3n2)n(C2CCN(C(=O)[C@H](C)O)CC2)c(=O)n4C)cc1` [Compound 244, 1-[4-(1-{1-[(2S)-2-hydroxypropanoyl]piperidin-4-yl}-3-methyl-2-oxo-2,3-dihydro-1H-imidazo[4,5-c][1,5]naphthyridin-8-yl)phenyl]-3-methylurea], the “PI3Ka Ki” value at PI3-Kα is 1.94 nM. For the same compound, in assay [1] (setting [3]), the IC50 amounted to 0.0815 µM.
Compound `CNC(=O)Nc1ccc(-c2ccc3ncc4c(c3n2)n(C2CCN(C(=O)CO)CC2)c(=O)n4C)cc1` [Compound 245, 1-{4-[1-(1-glycoloylpiperidin-4-yl)-3-methyl-2-oxo-2,3-dihydro-1H-imidazo[4,5-c][1,5]naphthyridin-8-yl]phenyl}-3-methylurea] displayed an inhibition constant Ki on mTOR of 2.03 nM. Besides, the “PI3Ka Ki” value at PI3-Kα was 2.19 nM.
Take `CC(=O)N1CCC(n2c(=O)n(C)c3cnc4ccc(-c5cccc(-n6cccn6)c5)nc4c32)CC1` [Compound 247, 1-(1-acetylpiperidin-4-yl)-3-methyl-8-[3-(1H-pyrazol-1-yl)phenyl]-1,3-dihydro-2H-imidazo[4,5-c][1,5]naphthyridin-2-one]: the “PI3Ka Ki” value at PI3-Kα was 17.6 nM.
Take `Cn1c(=O)n(C2CCN(C(=O)CO)CC2)c2c3nc(-c4ccnc5[nH]ncc45)ccc3ncc21` [Compound 252, 1-(1-glycoloylpiperidin-4-yl)-3-methyl-8-(1H-pyrazolo[3,4-b]pyridin-4-yl)-1,3-dihydro-2H-imidazo[4,5-c][1,5]naphthyridin-2-one]: on mTOR, the Ki stood at 1.77 nM. The “PI3Ka Ki” value on PI3-Kα was 0.832 nM.
`Cn1c(=O)n([C@H]2CC[C@H](O)CC2)c2c3nc(-c4cnc5[nH]ncc5c4)ccc3ncc21` [Compound 268, 1-(trans-4-hydroxycyclohexyl)-3-methyl-8-(1H-pyrazolo[3,4-b]pyridin-5-yl)-1,3-dihydro-2H-imidazo[4,5-c][1,5]naphthyridin-2-one]: the “PI3Ka Ki” value at PI3-Kα is 0.366 nM. Besides, the IC50 in assay [1] (setting [3]) was 0.0133 µM.
`COc1ccc(-c2ccc3ncc4c(c3n2)n(CCN2CCOCC2)c(=O)n4C)cn1` [Compound 269, 8-(6-methoxypyridin-3-yl)-3-methyl-1-(2-morpholin-4-ylethyl)-1,3-dihydro-2H-imidazo[4,5-c][1,5]naphthyridin-2-one] registered a Ki on mTOR of 27.8 nM. Moreover, on PI3-Kα, the “PI3Ka Ki” value was 12.2 nM.
As for `COc1ccc(-c2ccc3ncc4c(c3n2)n(C2CCN(C(=O)[C@H](C)O)CC2)c(=O)n4C)cc1` [Compound 272, 1-{1-[(2S)-2-hydroxypropanoyl]piperidin-4-yl}-8-(4-methoxyphenyl)-3-methyl-1,3-dihydro-2H-imidazo[4,5-c][1,5]naphthyridin-2-one], the “PI3Ka Ki” value on PI3-Kα was 1.84 nM. Besides, in assay [1] (setting [3]), the IC50 is 0.014 µM.
`COc1ccccc1-c1ccc2ncc3c(c2n1)n(C1CCN(C(=O)CO)CC1)c(=O)n3C` [Compound 279, 1-(1-glycoloylpiperidin-4-yl)-8-(2-methoxyphenyl)-3-methyl-1,3-dihydro 2H-imidazo[4,5-c][1,5]naphthyridin-2-one]: the “PI3Ka Ki” value at PI3-Kα was 118 nM.
In the case of `COc1ccccc1-c1ccc2ncc3c(c2n1)n(C1CCN(C(C)=O)CC1)c(=O)n3C` [Compound 280, 1-(1-acetylpiperidin-4-yl)-8-(2-methoxyphenyl)-3-methyl-1,3-dihydro-2H-imidazo[4,5-c][1,5]naphthyridin-2-one], on PI3-Kα (read-out: PI3Ka Ki), the Ki turned out to be 292 nM.
